SMILES strings stand for the structures.

Assay [1] concerns the target T1, MDM2 (Homo sapiens, UniProt Q00987).
T1 construct: made in house
In words: Inhibition test of MDM2-P53 (GST-MDM2, Biotin-P53, Anti-GST-Tb, SA-XL665). It counts as binding. Conditions: for inhibitory effect on MDM2 compared with positive control compound HDM201: labels are Example numbers, the compounds with S-configuration are meant. The method in brief: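 Compounds, serially diluted 5-fold (twelve concentrations), were shaken for 90 min at 25° C with a mix of GST-MDM2 (4 nM final), Biotin-P53, anti-GST-Tb and SA-XL665. Buffer: 1×PBS, 0.1% BSA, 5 mM DTT, 1 mM AEBSF; signal read on a microplate reader.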

For assay [2], the system named is human osteosarcoma cell line SJSA-1. Kind of assay: Inhibition of proliferation of human osteosarcoma cell line SJSA-1 (DAPI staining, In Cell Analyzer). The settings on record: for inhibitory effect on human osteosarcoma cell line SJSA-1 compared with positive control compound HDM201: labels are Example numbers, the compounds with S-configuration are meant; for IC50: Homo sapiens, SJSA-1, 72 h, read-out: IC50 (nM), inhibitory activity on proliferation of human osteosarcoma cell line SJSA-1, SJSA-1, incubated 72 h.

T1 sequence (Q00987 whole entry): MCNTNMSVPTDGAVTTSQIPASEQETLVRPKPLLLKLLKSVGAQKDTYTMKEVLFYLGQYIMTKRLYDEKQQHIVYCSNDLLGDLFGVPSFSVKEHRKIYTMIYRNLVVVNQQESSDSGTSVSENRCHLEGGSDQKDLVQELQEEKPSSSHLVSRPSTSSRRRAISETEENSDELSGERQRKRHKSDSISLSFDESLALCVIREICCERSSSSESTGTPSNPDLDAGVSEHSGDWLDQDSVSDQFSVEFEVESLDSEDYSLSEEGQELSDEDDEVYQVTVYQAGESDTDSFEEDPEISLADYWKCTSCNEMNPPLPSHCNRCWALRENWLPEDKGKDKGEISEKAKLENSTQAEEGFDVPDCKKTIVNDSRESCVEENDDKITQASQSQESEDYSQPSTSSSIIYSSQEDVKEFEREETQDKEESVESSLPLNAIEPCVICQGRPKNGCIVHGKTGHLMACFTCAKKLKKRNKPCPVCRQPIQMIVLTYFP

Take `COc1nc(OC(C)C)ncc1-c1nc2c(n1C(C)C)C1(C(=O)Nc3cc(Cl)ccc31)N(c1cc(Cl)ccc1C)C2=O` (stereo not shown) [Example 126, 6-chloro-5′-(5-chloro-2-methylphenyl)-2′-(2-isopropoxy-4-methoxypyrimidin-5-yl)-3′-isopropyl-3′H-spiro[dihydroindole-3,4′-pyrrolo[3,4-d]imidazole]-2,6′(5′H)-dione]: the “inhibitory effect on MDM2 compared with positive control compound HDM201” value in assay [1] is reported as “better”. Besides, the “inhibitory effect on human osteosarcoma cell line SJSA-1 compared with positive control compound HDM201” value in assay [2] is on record as “better”.

Take `COc1cc(OC)c(-c2nc3c(n2C(C)C)C2(C(=O)Nc4cc(Cl)ccc42)N(c2cc(Cl)cnc2C)C3=O)cn1` (stereo not shown) [Example 131, 6-chloro-5′-(5-chloro-2-methylpyridin-3-yl)-2′-(4,6-dimethoxypyridin-3-yl)-3′-isopropyl-3′H-spiro[dihydroindole-3,4′-pyrrolo[3,4-d]imidazole]-2,6′(5′H)-dione]: the “inhibitory effect on MDM2 compared with positive control compound HDM201” value in assay [1] was “better”. The “inhibitory effect on human osteosarcoma cell line SJSA-1 compared with positive control compound HDM201” value in assay [2] is recorded as “better”.

On to `COc1cc(OC(C)C)ncc1-c1nc2c(n1C(C)C)C1(C(=O)Nc3cc(Cl)ccc31)N(c1cc(Cl)cnc1C)C2=O` (stereo not shown) [Example 137, 6-chloro-5′-(5-chloro-2-methylpyridin-3-yl)-2′-(6-isopropoxy-4-methoxypyridin-3-yl)-3′-isopropyl-3′H-spiro[dihydroindole-3,4′-pyrrolo[3,4-d]imidazole]-2,6′(5′H)-dione], for which, in assay [1], the “inhibitory effect on MDM2 compared with positive control compound HDM201” value was “better”. Further, in assay [2], the “inhibitory effect on human osteosarcoma cell line SJSA-1 compared with positive control compound HDM201” value was “better”.

Regarding `COc1cc(C(F)(F)F)ncc1-c1nc2c(n1C(C)C)C1(C(=O)Nc3cc(Cl)ccc31)N(c1cc(Cl)ccc1C)C2=O` (stereo not shown) [Example 138, 6-chloro-5′-(5-chloro-2-methylphenyl)-3′-isopropyl-2′-(4-methoxy-6-(trifluoromethyl)pyridin-3-yl)-3′H-spiro[dihydroindole-3,4′-pyrrolo[3,4-d]imidazole]-2,6′(5′H)-dione], the “inhibitory effect on MDM2 compared with positive control compound HDM201” value in assay [1] is recorded as “better”. In assay [2], the “inhibitory effect on human osteosarcoma cell line SJSA-1 compared with positive control compound HDM201” value is reported as “better”.

Consider `CCOc1cc(OC)c(-c2nc3c(n2C(C)C)C2(C(=O)Nc4cc(Cl)ccc42)N(c2cc(F)cc(Cl)c2)C3=O)cn1` (stereo not shown) [Example 139, 6-chloro-5′-(3-chloro-5-fluorophenyl)-2′-(6-ethoxy-4-methoxypyridin-3-yl)-3′-isopropyl-3′H-spiro[dihydroindole-3,4′-pyrrolo[3,4-d]imidazole]-2,6′(5′H)-dione], for which the “inhibitory effect on MDM2 compared with positive control compound HDM201” value in assay [1] is reported as “better”. Moreover, the “inhibitory effect on human osteosarcoma cell line SJSA-1 compared with positive control compound HDM201” value in assay [2] is “better”.

As for `COc1cc(C2CC2)ncc1-c1nc2c(n1C(C)C)C1(C(=O)Nc3cc(Cl)ccc31)N(c1cc(Cl)cnc1C)C2=O` (stereo not shown) [Example 143, 6-chloro-5′-(5-chloro-2-methylpyridin-3-yl)-2′-(6-cyclopropyl-4-methoxypyridin-3-yl)-3′-isopropyl-3′H-spiro[dihydroindole-3,4′-pyrrolo[3,4-d]imidazole]-2,6′(5′H)-dione], the “inhibitory effect on MDM2 compared with positive control compound HDM201” value in assay [1] was “better”. Moreover, in assay [2], the “inhibitory effect on human osteosarcoma cell line SJSA-1 compared with positive control compound HDM201” value is recorded as “better”.

In the case of `COc1cc(OCC(F)F)ncc1-c1nc2c(n1C(C)C)C1(C(=O)Nc3cc(Cl)ccc31)N(c1cc(Cl)ccc1C)C2=O` (stereo not shown) [Example 153, 6-chloro-5′-(5-chloro-2-methylphenyl)-2′-(6-(2,2-difluoroethoxy)-4-methoxypyridin-3-yl)-3′-isopropyl-3′H-spiro[dihydroindole-3,4′-pyrrolo[3,4-d]imidazole]-2,6′(5′H)-dione], in assay [1], the “inhibitory effect on MDM2 compared with positive control compound HDM201” value was “better”. Besides, the “inhibitory effect on human osteosarcoma cell line SJSA-1 compared with positive control compound HDM201” value in assay [2] is on record as “better”.

`COc1cc(C)ncc1-c1nc2c(n1C(C)C)C1(C(=O)Nc3cc(Cl)ccc31)N(c1cc(Cl)ccc1C)C2=O` (stereo not shown) [Example 154, 6-chloro-5′-(5-chloro-2-methylphenyl)-3′-isopropyl-2′-(4-methoxy-6-methylpyridin-3-yl)-3′H-spiro[dihydroindole-3,4′-pyrrolo[3,4-d]imidazole]-2,6′(5′H)-dione]: in assay [1], the “inhibitory effect on MDM2 compared with positive control compound HDM201” value is “better”. The “inhibitory effect on human osteosarcoma cell line SJSA-1 compared with positive control compound HDM201” value in assay [2] is “better”.

As for `COc1cc(N(C)C)ncc1-c1nc2c(n1C(C)C)C1(C(=O)Nc3cc(Cl)ccc31)N(c1cc(Cl)cnc1C)C2=O` (stereo not shown) [Example 155, 6-chloro-5′-(5-chloro-2-methylpyridin-3-yl)-2′-(6-(dimethylamino)-4-methoxypyridin-3-yl)-3′-isopropyl-3′H-spiro[dihydroindole-3,4′-pyrrolo[3,4-d]imidazole]-2,6′(5′H)-dione], in assay [1], the “inhibitory effect on MDM2 compared with positive control compound HDM201” value is given as “better”. Also, in assay [2], the “inhibitory effect on human osteosarcoma cell line SJSA-1 compared with positive control compound HDM201” value is reported as “better”.

With `COc1cc(C(C)C)ncc1-c1nc2c(n1C(C)C)C1(C(=O)Nc3cc(Cl)ccc31)N(c1cc(Cl)ccc1C)C2=O` (stereo not shown) [Example 164, 6-chloro-5′-(5-chloro-2-methylphenyl)-3′-isopropyl-2′-(6-isopropyl-4-methoxypyridin-3-yl)-3′H-spiro[dihydroindole-3,4′-pyrrolo[3,4-d]imidazole]-2,6′(5′H)-dione], the “inhibitory effect on MDM2 compared with positive control compound HDM201” value in assay [1] was “better”. Further, the “inhibitory effect on human osteosarcoma cell line SJSA-1 compared with positive control compound HDM201” value in assay [2] is on record as “better”.

Consider `COc1cc(C(C)C)ncc1-c1nc2c(n1C(C)C)C1(C(=O)Nc3cc(Cl)ccc31)N(c1cc(Cl)cnc1C)C2=O` (stereo not shown) [Example 166, 6-chloro-5′-(5-chloro-2-methylpyridin-3-yl)-3′-isopropyl-2′-(6-isopropyl-4-methoxypyridin-3-yl)-3′H-spiro[dihydroindole-3,4′-pyrrolo[3,4-d]imidazole]-2,6′(5′H)-dione], for which, in assay [1], the “inhibitory effect on MDM2 compared with positive control compound HDM201” value was “better”. Further, the “inhibitory effect on human osteosarcoma cell line SJSA-1 compared with positive control compound HDM201” value in assay [2] was “better”.

Consider `COc1cc(C2CC2)ncc1-c1nc2c(n1C(C)C)C1(C(=O)Nc3cc(Cl)ccc31)N(c1cc(F)cc(Cl)c1)C2=O` (stereo not shown) [Example 176, 6-chloro-5′-(3-chloro-5-fluorophenyl)-2′-(6-cyclopropyl-4-methoxypyridin-3-yl)-3′-isopropyl-3′H-spiro[dihydroindole-3,4′-pyrrolo[3,4-d]imidazole]-2,6′(5′H)-dione], for which the “inhibitory effect on MDM2 compared with positive control compound HDM201” value in assay [1] is on record as “better”. Moreover, the “inhibitory effect on human osteosarcoma cell line SJSA-1 compared with positive control compound HDM201” value in assay [2] is recorded as “better”.

As for `COc1nc(C#N)ncc1-c1nc2c(n1C(C)C)C1(C(=O)Nc3cc(Cl)ccc31)N(c1cc(Cl)ccc1C)C2=O` (stereo not shown) [Example 179], the IC50 in assay [1] amounted to 4.27 nM; in assay [2] it was 52.7 nM.

For the compound `COc1ncc(-c2nc3c(n2C(C)C)[C@]2(C(=O)Nc4cc(Cl)ccc42)N(c2cccc(Cl)c2)C3=O)c(OC)n1` [Example R-1, (R)-6-chloro-5′-(3-chlorophenyl)-2′-(2,4-dimethoxypyrimidin-5-yl)-3′-isopropyl-3′H-spiro[dihydroindole-3,4′-pyrrolo[3,4-d]imidazole]-2,6′(5′H)-dione], the values for the IC50 in assay [1] and in assay [2] were 618 nM and 16700 nM, respectively.

Turning to `COc1ncc(-c2nc3c(n2C(C)C)[C@]2(C(=O)Nc4cc(Cl)ccc42)N(c2cc(Cl)ccc2C)C3=O)c(OC)n1` [Example R-2, (R)-6-chloro-5′-(5-chloro-2-methylphenyl)-2′-(2,4-dimethoxypyrimidin-5-yl)-3′-isopropyl-3′H-spiro[dihydroindole-3,4′-pyrrolo[3,4-d]imidazole]-2,6′(5′H)-dione], the values for the IC50 in assay [1] and in assay [2] were 117 nM and 2770 nM, respectively.

For the compound `COc1ncc(-c2nc3c(n2C(C)C)[C@]2(C(=O)Nc4cc(Cl)ccc42)N(c2ccc(F)c(Cl)c2)C3=O)c(OC)n1` [Example R-3, (R)-6-chloro-5′-(3-chloro-4-fluorophenyl)-2′-(2,4-dimethoxypyrimidin-5-yl)-3′-isopropyl-3′H-spiro[dihydroindole-3,4′-pyrrolo[3,4-d]imidazole]-2,6′(5′H)-dione], the figures for the IC50 in assay [1] and in assay [2] were 1190 nM and 16300 nM, respectively.

Take `COc1cc(F)ccc1-c1nc2c(n1C(C)C)[C@]1(C(=O)Nc3cc(Cl)ccc31)N(c1cc(Cl)ccc1C)C2=O` [Example R-4, (R)-6-chloro-5′-(5-chloro-2-methylphenyl)-2′-(4-fluoro-2-methoxyphenyl)-3′-isopropyl-3′H-spiro[dihydroindole-3,4′-pyrrolo[3,4-d]imidazole]-2,6′(5′H)-dione]: the values for the IC50 in assay [1] and in assay [2] were 132 nM and 2190 nM, respectively.

Consider `COc1ccccc1-c1nc2c(n1C(C)C)[C@]1(C(=O)Nc3cc(Cl)ccc31)N(c1cc(Cl)ccc1C)C2=O` [Example R-5, (R)-6-chloro-5′-(5-chloro-2-methylphenyl)-3′-isopropyl-2′-(2-methoxyphenyl)-3′H-spiro[dihydroindole-3,4′-pyrrolo[3,4-d]imidazole]-2,6′(5′H)-dione], for which the IC50 turned out to be 109 nM in assay [1] and 1600 nM in assay [2].

As for `COc1ccc(-c2nc3c(n2C(C)C)[C@]2(C(=O)Nc4cc(Cl)ccc42)N(c2cc(Cl)ccc2C)C3=O)c(OC)n1` [Example R-8, (R)-6-chloro-5′-(5-chloro-2-methylphenyl)-2′-(2,6-dimethoxypyridin-3-yl)-3′-isopropyl-3′H-spiro[dihydroindole-3,4′-pyrrolo[3,4-d]imidazole]-2,6′(5′H)-dione], the IC50 in assay [1] worked out at 329 nM; in assay [2], 2290 nM.

As to `COc1ccc(-c2nc3c(n2C(C)C)[C@]2(C(=O)Nc4cc(Cl)ccc42)N(c2cc(Cl)ccc2C)C3=O)c(OC)c1` [Example R-9, (R)-6-chloro-5′-(5-chloro-2-methylphenyl)-2′-(2,4-dimethoxyphenyl)-3′-isopropyl-3′H-spiro[dihydroindole-3,4′-pyrrolo[3,4-d]imidazole]-2,6′(5′H)-dione], the results for the IC50 in assay [1] and in assay [2] were 332 nM and 2820 nM, respectively.

Source of the values: patent US11339171B2, “MDM2 inhibitors” (Gan & Lee Pharmaceuticals, priority 2017, dated 2022).
